Results published in ChEMBL document CHEMBL3627619, “Synthesis and biological profiling of 6- or 7-(het)aryl-7-deazapurine 4'-C-methylribonucleosides” (Bioorg Med Chem, 2015).

How the values were obtained:
[1] = Cytotoxicity against human MRC5 cells after 3 days by MTT assay; format: cell-based
A549 = assay: Cytotoxicity against human A549 cells after 3 days by MTT assay; format: functional, cell-based; conditions: A549, 72 h
[2] = Cytotoxicity against African green monkey Vero cells; format: cell-based; conditions: chlorocebus sabaeus
dengue virus type 2 = assay: Antiviral activity against DENV2 infected in African green monkey Vero cells; format: functional, organism-based
[3] = Cytotoxicity against human BJ cells after 3 days by MTT assay; format: cell-based
[4] = Selectivity index, ratio of CC50 for human HuH7 cells to EC50 for Hepatitis C virus subtype 1b replicon infected in human HuH7 cells; format: toxicity, cell-based, Huh-7; conditions: read-out: Ratio CC50/EC50
K562 = assay: Cytotoxicity against human K562 cells after 3 days by MTT assay; format: functional, cell-based; conditions: K562, 72 h
HCT-116 [5] = assay: Cytotoxicity against human HCT116 cells after 3 days by MTT assay; format: functional, cell-based; conditions: HCT-116, 72 h
Hepatitis C virus = assay: Antiviral activity against Hepatitis C virus subtype 1b replicon infected in human HuH7 cells; format: functional, cell-based, Hepacivirus hominis; conditions: genotype 1b, Huh-7
[6] = Cytotoxicity against human HuH7 cells; format: cell-based, Huh-7
[7] = Cytotoxicity against human CEM/DNR cells after 3 days by MTT assay; format: functional, cell-based; conditions: 72 h
[8] = Cytotoxicity against human K562-TAX cells after 3 days by MTT assay; format: functional, cell-based; conditions: 72 h
CCRF-CEM = assay: Cytotoxicity against human CCRF-CEM cells after 3 days by MTT assay; format: functional, cell-based; conditions: 72 h
HCT-116 [9] = assay: Cytotoxicity against p53 deficient human HCT116 cells after 3 days by MTT assay; format: functional, cell-based; conditions: HCT-116, 72 h

Row | Compound | EC50 (dengue virus type 2) | EC50 (Hepatitis C virus) | CC50 at 72 h [1] | IC50 (A549) | CC50 [2] | CC50 at 72 h [3] | selectivity ratio [4] | IC50 (K562) | IC50 (HCT-116 [5]) | CC50 [6] | IC50 [7] | IC50 [8] | IC50 (CCRF-CEM) | IC50 (HCT-116 [9])
1 | C[C@]1(CO)O[C@@H](n2cc(-c3ccco3)c3c(N)ncnc32)[C@H](O)[C@@H]1O | > 50 µM | 20 µM | – | – | > 50 µM | – | – | – | – | > 44 µM | – | – | – | –
2 | C[C@]1(CO)O[C@@H](n2cc(-c3cccs3)c3c(N)ncnc32)[C@H](O)[C@@H]1O | > 50 µM | 17.9 µM | – | – | > 50 µM | – | – | – | – | > 44 µM | – | – | – | –
3 | C[C@]1(CO)O[C@@H](n2cc(-c3ccsc3)c3c(N)ncnc32)[C@H](O)[C@@H]1O | > 50 µM | 40.6 µM | – | – | > 50 µM | – | – | – | – | > 44 µM | – | – | – | –
4 | CCOC(=O)[C@H](C)NP(=O)(OC[C@@]1(C)O[C@@H](n2cc(-c3ccco3)c3c(N)ncnc32)[C@H](O)[C@@H]1O)Oc1ccccc1 (stereo not given in full) | – | > 44 µM | – | – | – | – | – | – | – | 20.8 µM | – | – | – | –
5 | CCOC(=O)[C@H](C)NP(=O)(OC[C@@]1(C)O[C@@H](n2cc(-c3cccs3)c3c(N)ncnc32)[C@H](O)[C@@H]1O)Oc1ccccc1 (stereo not given in full) | – | 23.2 µM | – | – | – | – | – | – | – | 13 µM | – | – | – | –
6 | CCOC(=O)[C@H](C)NP(=O)(OC[C@@]1(C)O[C@@H](n2cc(-c3ccccc3)c3c(N)ncnc32)[C@H](O)[C@@H]1O)Oc1ccccc1 (stereo not given in full) | – | 18 µM | – | – | – | – | – | – | – | 9.1 µM | – | – | – | –

Second part, led by results:

Row | EC50 (dengue virus type 2) | EC50 (Hepatitis C virus) | Compound | CC50 at 72 h [1] | IC50 (A549) | CC50 [2] | CC50 at 72 h [3] | selectivity ratio [4] | IC50 (K562) | IC50 (HCT-116 [5]) | CC50 [6] | IC50 [7] | IC50 [8] | IC50 (CCRF-CEM) | IC50 (HCT-116 [9])
7 | 5.55 µM | 3.75 µM | C[C@]1(CO)O[C@@H](n2cc(I)c3c(N)ncnc32)[C@H](O)[C@@H]1O | 40.8 µM | 5.92 µM | 8.08 µM | 42.4 µM | 7.2 | 20.4 µM | 5.25 µM | 27.1 µM | 27.9 µM | 9.46 µM | 10.2 µM | 5.87 µM
8 | 10.1 µM | 4.48 µM | C[C@]1(CO)O[C@@H](n2cc(-c3cc4ccccc4o3)c3c(N)ncnc32)[C@H](O)[C@@H]1O | 83.7 µM | 7.13 µM | 27 µM | 104 µM | – | 9.64 µM | 9.75 µM | 31.1 µM | 8.94 µM | 8.82 µM | 16.6 µM | 10.7 µM
9 | 4.59 µM | 6.27 µM | C#Cc1cn([C@@H]2O[C@](C)(CO)[C@@H](O)[C@H]2O)c2ncnc(N)c12 | 125 µM | 9.55 µM | 13.4 µM | 126 µM | – | 31.1 µM | 8.79 µM | 32.2 µM | 38.4 µM | 27.4 µM | 30.3 µM | 10.2 µM
10 | > 50 µM | 7.62 µM | C[C@]1(CO)O[C@@H](n2ccc3c(-c4cc5ccccc5o4)ncnc32)[C@H](O)[C@@H]1O | – | – | > 50 µM | – | – | – | – | > 44 µM | – | – | – | –
11 | > 50 µM | 17.6 µM | CCOC(=O)[C@H](C)NP(=O)(OC[C@@]1(C)O[C@@H](n2ccc3c(-c4ccco4)ncnc32)[C@H](O)[C@@H]1O)Oc1ccccc1 (stereo not given in full) | – | – | > 50 µM | – | – | – | – | 27.9 µM | – | – | – | –
12 | – | 3.32 µM | CCOC(=O)[C@H](C)NP(=O)(OC[C@@]1(C)O[C@@H](n2ccc3c(-c4cccs4)ncnc32)[C@H](O)[C@@H]1O)Oc1ccccc1 (stereo not given in full) | 106 µM | 22.2 µM | – | 83.1 µM | – | 22.9 µM | 19.4 µM | 3.64 µM | 43.1 µM | 33.6 µM | 12.3 µM | 22 µM
13 | > 50 µM | 16.5 µM | CCOC(=O)[C@H](C)NP(=O)(OC[C@@]1(C)O[C@@H](n2ccc3c(-c4ccccc4)ncnc32)[C@H](O)[C@@H]1O)Oc1ccccc1 (stereo not given in full) | 108 µM | 25.9 µM | > 50 µM | 75.3 µM | – | 29.9 µM | 22.2 µM | > 44 µM | 43.6 µM | 35.4 µM | 17.4 µM | 22.8 µM
